One compound from ChEMBL document CHEMBL4808208, “Hepatoselective Dihydroquinolizinone Bis-acids for HBsAg mRNA Degradation” (ACS Med Chem Lett, 2021) can be followed below.

As a reminder, the IC50 is the concentration that inhibits the measured activity by half. Lower therefore signals higher potency. One may read the half-life as the time in which the quantity being followed falls by half. A lower half-life goes with fast loss. The term AUC(0-t) denotes exposure summed from dosing to a finite time, without extrapolation to infinity. The term clearance denotes a measure of how efficiently the substance is removed, as volume per time. A low value points to a low capacity for elimination. The Papp B→A is the apparent permeability from the basolateral to the apical side of a cell layer. In general, efflux ratio refers to the permeability from basolateral to apical divided by that in the opposite direction, in the common usage. The term Papp A→B denotes how fast a substance crosses the layer from the apical side. A word on the Kp: it is tissue or fluid exposure divided by exposure in the circulation.

“And” between values parts separate entries of the source, which are not always exact repeats. Identical values can stand only once.

Series [1] has as its target T1, Cytochrome P450 3A4 (Homo sapiens, UniProt P08684). As to the kind of experiment: Inhibition of CYP3A4 in human liver microsomes using midazolam as substrate preincubated for 5 mins followed by NADPH addition by LC-MS/MS analysis. It is filed as ADME. (Liver microsomes are vesicles of endoplasmic reticulum, rich in cytochrome P450 enzymes.)
Series [2] can be described thus: Half life in CD-1 mouse plasma at 3 mg/kg, iv measured for 24 hrs by LC-MS/MS analysis. It is filed as ADME, organism-based.
Series [3] is described as follows: AUC (last) in CD-1 mouse plasma at 8 mg/kg, po measured for 24 hrs by LC-MS/MS analysis. It is filed as ADME, organism-based. The arrangement: route oral, dose 8 mg/kg, time 24 hrs.
Series [4] is described as follows: Clearance in CD-1 mouse at 3 mg/kg, iv measured for 24 hrs by LC-MS/MS analysis. It is filed as ADME, organism-based. The following applies: in vivo.
Series [5] can be described thus: Apparent permeability of the compound across basolateral to apical side in human Caco-2 cells at 10 uM incubated for 1 hr. The format is ADME, cell-based.
The next series deals with Cytochrome P450 2C19 (Homo sapiens, UniProt P33261). As to the kind of experiment: Inhibition of CYP2C19 in human liver microsomes using mephenytoin as substrate preincubated for 5 mins followed by NADPH addition by LC-MS/MS analysis. It is filed as ADME.
Sequence of Cytochrome P450 2C19 (P33261 whole entry): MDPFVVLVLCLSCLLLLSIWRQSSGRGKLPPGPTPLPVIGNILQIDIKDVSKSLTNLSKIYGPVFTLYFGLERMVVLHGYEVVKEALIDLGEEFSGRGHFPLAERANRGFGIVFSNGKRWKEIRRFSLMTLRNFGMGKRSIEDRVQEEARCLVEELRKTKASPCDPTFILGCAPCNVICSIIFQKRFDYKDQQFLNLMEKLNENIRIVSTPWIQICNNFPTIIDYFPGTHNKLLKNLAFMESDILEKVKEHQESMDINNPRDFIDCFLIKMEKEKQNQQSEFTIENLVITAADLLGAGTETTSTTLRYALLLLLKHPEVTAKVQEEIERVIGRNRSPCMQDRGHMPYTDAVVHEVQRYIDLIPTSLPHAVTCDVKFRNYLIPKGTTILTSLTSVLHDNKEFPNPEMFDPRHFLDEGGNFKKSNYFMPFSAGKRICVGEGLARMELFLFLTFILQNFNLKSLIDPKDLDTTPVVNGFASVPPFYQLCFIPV
Another series addresses T2, Cytochrome P450 2B6 (Homo sapiens, UniProt P20813).
T2 sequence (P20813 whole entry): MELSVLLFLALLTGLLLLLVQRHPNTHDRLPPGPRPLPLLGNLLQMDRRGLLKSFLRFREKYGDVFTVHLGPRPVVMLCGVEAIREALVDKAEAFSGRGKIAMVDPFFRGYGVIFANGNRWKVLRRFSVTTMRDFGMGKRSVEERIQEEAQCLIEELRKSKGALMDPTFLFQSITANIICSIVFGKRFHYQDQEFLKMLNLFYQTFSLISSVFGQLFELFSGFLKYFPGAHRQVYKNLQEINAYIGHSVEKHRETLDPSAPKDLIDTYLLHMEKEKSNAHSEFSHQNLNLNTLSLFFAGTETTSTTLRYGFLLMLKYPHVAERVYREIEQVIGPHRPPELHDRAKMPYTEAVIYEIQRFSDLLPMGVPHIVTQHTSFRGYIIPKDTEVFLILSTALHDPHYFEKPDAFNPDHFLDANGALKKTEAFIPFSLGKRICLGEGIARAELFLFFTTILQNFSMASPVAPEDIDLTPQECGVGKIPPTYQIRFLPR
As to the kind of experiment: Inhibition of CYP2B6 in human liver microsomes using bupropion as substrate preincubated for 5 mins followed by NADPH addition by LC-MS/MS analysis. The format is ADME.

Series [6] in a line: Metabolic stability in mouse liver microsomes assessed as clearance preincubated with compound for 10 mins followed by NADPH regenerating system addition and measured per mg protein for 60 mins by LC/MS-MS analysis. The format is ADME, Microsome. To be noted: time 70 min, read-out: CLH.
Series [7] can be described thus: Efflux ratio of apparent permeability in MDCK-MDR1 cells at 1 uM after 120 mins by LC-MS/MS analysis. To be noted: dog. It is filed as ADME, cell-based, Canis lupus familiaris.
The next series has as its target T3, Cytochrome P450 2A6 (Homo sapiens, UniProt P11509).
T3 sequence (P11509 whole entry): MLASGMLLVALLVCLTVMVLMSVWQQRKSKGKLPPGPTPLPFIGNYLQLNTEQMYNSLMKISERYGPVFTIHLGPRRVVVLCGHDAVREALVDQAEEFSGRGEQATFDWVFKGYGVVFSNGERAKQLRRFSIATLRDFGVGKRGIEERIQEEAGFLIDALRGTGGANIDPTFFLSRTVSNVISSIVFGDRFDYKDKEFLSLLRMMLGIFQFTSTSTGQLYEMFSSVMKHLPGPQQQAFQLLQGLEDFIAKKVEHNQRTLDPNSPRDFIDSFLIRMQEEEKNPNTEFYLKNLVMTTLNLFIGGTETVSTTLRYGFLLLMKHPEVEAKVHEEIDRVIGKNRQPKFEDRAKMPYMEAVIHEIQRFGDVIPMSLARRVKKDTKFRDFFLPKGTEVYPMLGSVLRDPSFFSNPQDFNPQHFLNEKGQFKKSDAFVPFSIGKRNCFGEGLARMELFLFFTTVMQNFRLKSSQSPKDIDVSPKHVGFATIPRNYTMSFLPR
As to the kind of experiment: Inhibition of CYP2A6 in human liver microsomes using coumarin as substrate preincubated for 5 mins followed by NADPH addition by LC-MS/MS analysis. The format is ADME.

A short description of series [8]: Apparent permeability across apical to basolateral side in MDCK-MDR1 cells at 1 uM measured after 120 mins by LC-MS/MS analysis. The format is ADME, cell-based, Canis lupus familiaris. To be noted: dog.
For series [9], the target named is T4, Solute carrier organic anion transporter family member 1B3 (Homo sapiens, UniProt Q9NPD5).
T4 sequence (Q9NPD5 whole entry): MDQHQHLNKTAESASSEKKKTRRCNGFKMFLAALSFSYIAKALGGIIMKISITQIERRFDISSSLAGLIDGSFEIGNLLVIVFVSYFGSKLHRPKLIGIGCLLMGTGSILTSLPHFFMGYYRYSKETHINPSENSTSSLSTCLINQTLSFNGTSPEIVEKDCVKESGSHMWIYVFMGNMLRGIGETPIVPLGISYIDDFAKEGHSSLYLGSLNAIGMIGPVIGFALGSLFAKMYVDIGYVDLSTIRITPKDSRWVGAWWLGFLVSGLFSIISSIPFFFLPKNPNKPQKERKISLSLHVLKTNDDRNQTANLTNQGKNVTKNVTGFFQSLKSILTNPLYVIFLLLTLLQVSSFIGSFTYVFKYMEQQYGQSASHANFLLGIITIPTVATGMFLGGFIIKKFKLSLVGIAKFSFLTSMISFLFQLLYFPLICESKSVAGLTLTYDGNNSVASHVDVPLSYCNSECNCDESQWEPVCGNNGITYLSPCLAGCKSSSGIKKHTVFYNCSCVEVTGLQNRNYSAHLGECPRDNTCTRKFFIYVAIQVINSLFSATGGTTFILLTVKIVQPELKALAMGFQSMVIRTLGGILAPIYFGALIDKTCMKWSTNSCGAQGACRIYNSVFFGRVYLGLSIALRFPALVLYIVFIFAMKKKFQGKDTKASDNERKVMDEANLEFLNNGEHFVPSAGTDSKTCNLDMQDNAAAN
As to the kind of experiment: Substrate activity at OATP1B3 (unknown origin) expressed in HEK293 cells assessed as ratio of drug uptake in absence of transporter inhibitor, estradiol-17beta-glucuronide to drug uptake in presence of transporter inhibitor, estradiol-17beta-glucuronide by LC-MS/MS analysis. The format is ADME, cell-based.

Series [10] in a line: Apparent permeability across basolateral to apical side in MDCK-MDR1 cells at 1 uM measured after 120 mins by LC-MS/MS analysis. It is filed as ADME, cell-based, Canis lupus familiaris. To be noted: dog.
Series [11] is described as follows: AUC (last) in CD-1 mouse plasma at 3 mg/kg, iv measured for 24 hrs by LC-MS/MS analysis. The format is ADME, organism-based. The arrangement: route intravenous, time 24 hrs, dose 3 mg/kg.
The nature of series [12]: Drug concentration in CD-1 mouse liver at 8 mg/kg, po measured after 4 hrs by LC-MS/MS analysis. To be noted: read-out: Ct. It is filed as ADME, organism-based.
Series [13] is described as follows: Half life in CD-1 mouse liver at 8 mg/kg, po measured for 24 hrs by LC-MS/MS analysis. It is filed as ADME, organism-based.
Series [14] in a line: Drug concentration in CD-1 mouse liver at 8 mg/kg, po measured after 30 mins by LC-MS/MS analysis. It is filed as ADME, organism-based. To be noted: read-out: Ct.
Series [15] has as its target T1, Cytochrome P450 3A4. As to the kind of experiment: Inhibition of CYP3A4 in human liver microsomes using testosterone as substrate preincubated for 5 mins followed by NADPH addition by LC-MS/MS analysis. It is filed as ADME.
Series [16] is described as follows: Ratio of AUC(last) in liver to plasma in CD-1 mouse at 8 mg/kg, po by LC-MS/MS analysis. It is filed as ADME, organism-based.

T1 sequence (P08684 whole entry): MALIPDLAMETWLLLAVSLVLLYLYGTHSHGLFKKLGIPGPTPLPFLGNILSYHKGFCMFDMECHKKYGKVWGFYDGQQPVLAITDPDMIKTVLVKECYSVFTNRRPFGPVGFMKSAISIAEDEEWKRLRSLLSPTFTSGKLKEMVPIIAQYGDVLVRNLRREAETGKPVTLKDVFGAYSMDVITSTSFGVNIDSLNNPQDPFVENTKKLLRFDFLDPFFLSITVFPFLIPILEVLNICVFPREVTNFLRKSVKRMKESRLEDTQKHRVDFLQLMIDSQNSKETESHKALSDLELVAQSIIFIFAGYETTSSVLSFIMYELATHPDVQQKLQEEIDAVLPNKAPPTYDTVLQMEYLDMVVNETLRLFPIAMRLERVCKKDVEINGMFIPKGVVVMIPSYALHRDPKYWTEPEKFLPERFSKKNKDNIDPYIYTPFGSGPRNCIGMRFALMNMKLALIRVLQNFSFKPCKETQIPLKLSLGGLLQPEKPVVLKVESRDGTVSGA

As to `COc1cc2c(cc1OCCCCCCC(=O)O)C[C@@H](C(C)C)n1cc(C(=O)O)c(=O)cc1-2`, the IC50 on Cytochrome P450 3A4 [1], against Cytochrome P450 2C19, against Cytochrome P450 2B6, on Cytochrome P450 2A6 and against Cytochrome P450 3A4 [15] was greater than 10 µM each time. Further, the half-life in series [2] was 1.48 h; in series [13], 3.54 h. Further, the AUC(0-t) at 24 h turned out to be 34.7 ng·h/mL in series [3] and 255 ng·h/mL in series [11]. The clearance in series [4] was determined as 198 mL/min/kg. The basolateral-to-apical permeability (Papp B→A) at 1 h, 10 µM in series [5] turned out to be 2.06 ×10⁻⁶ cm/s. The microsomal CLint in [6] came to 0.8 µL/min/mg. For the same compound, the efflux ratio at 2 h, 1 µM in series [7] worked out at 1.47. In addition, in [8], the Papp A→B at 2 h, 1 µM was 0.38 ×10⁻⁶ cm/s. Also, in series [9], the Ratio worked out at 11.57. For the same compound, the Papp B→A at 2 h, 1 µM in series [10] turned out to be 0.55 ×10⁻⁶ cm/s. Further, the concentration at 4 h in series [12] is 138 ng/mL and 300 nM. Further, the concentration at 0.5 h in [14] is 309 ng/mL and 680 nM. Also, the Kp in series [16] was 37.7.
